From patent publication US20030129193A1 (priority 2001, published 2003)

Experiments:
factor X = settings: appropriate phospholipid membrane environment; cited from earlier work
[1] = tested on: C1300 Muγ mouse neuroblastoma; assay: In vivo tumor thrombosis and anti-tumor effects, C1300 (Muγ); design: species or system BALB/c nu/nu mice
immobilized tTF = target: T1, immobilized tTF (Homo sapiens, UniProt P13726); assay: Real time binding study (surface plasmon resonance); settings: alone or preincubated with endotoxin or factor VIIa
T1 construct: the extracellular domain of the mature Tissue Factor protein (amino acid 1-219 of the mature protein; inferred from Ni-NTA purification); made in house; host or cells: E. coli (periplasmic secretion, vector pswc7)
T1 sequence (P13726 33-251): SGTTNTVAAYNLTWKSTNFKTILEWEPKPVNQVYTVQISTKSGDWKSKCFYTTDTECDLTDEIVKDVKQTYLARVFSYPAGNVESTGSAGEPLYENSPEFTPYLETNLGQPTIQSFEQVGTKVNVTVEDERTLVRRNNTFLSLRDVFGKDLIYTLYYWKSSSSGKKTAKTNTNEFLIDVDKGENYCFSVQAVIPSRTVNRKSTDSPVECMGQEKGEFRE

[2] = tested on: citrated mouse or human plasma; assay: In vitro coagulation assay on A20 cells; format: cell-based
[3] = tested on: H460 human non-small cell lung carcinoma; assay: Anti-tumor effects, H460; format: in vivo, nu/nu mice
Procedure: The tumor test systems were: i) L540 human Hodgkin's disease tumors growing in SCID mice; ii) C1300 Muγ (interferon-secreting) neuroblastoma growing in nu/nu mice; iii) H460 human non-small cell lung carcinoma growing in nu/nu mice. To establish solid tumors, 1.5×10^7 tumor cells were injected subcutaneously into the right anterior flank of SCID or BALB/c nu/nu mice (Charles River Labs., Wilmingham, Mass.). When the tumors had grown to various diameters mice were assigned to different experimental groups, each containing 4 to 9 mice.
Other mice received equivalent quantities of bispecific antibody alone. The injections were performed over ˜45 seconds into one of the tail veins, followed by 200 μl of saline. The infusions were repeated six days later. Perpendicular tumor diameters were measured at regular intervals and tumor volumes were calculated.

[4] = tested on: HT29 human colorectal carcinoma; assay: Anti-tumor effects and tumor necrosis, HT29; format: in vivo, BALB/c nu/nu mice
[5] = tested on: 2F2B mouse endothelial cells; assay: Binding of tTF to endothelial cells (FACS, cell bound coagulation assay); format: cell-based
Procedure: Cells were washed and coagulation factor mix (as described above) was added. S2765 substrate was added and Factor Xa generation was measured as described above.
Fluorescent cells were detected on a flow cytometer (Becton Dickinson, San Jose, Calif.).

[6] = Clinical signs of toxicity and histology of normal organs; format: in vivo, SCID mice; settings: for Symptoms: tTF alone
Procedure: Mice were closely observed after treatment for clinical signs of toxicity and clinical status was documented at defined time points (5 minutes, 10 minutes, 15 minutes, 30 minutes, 1 hour, 2 hours, 24 hours, 48 hours, 72 hours). Blood samples were taken from the tail vein at 1 hour, 2 hours and 24 hours to measure TNFα blood levels. Three days after treatment, the mice were anesthetized, blood samples were taken from the vena cava for coagulation tests, and an autopsy was performed to document any changes in gross pathology. Tumors, lymph node metastases and the major normal organs (heart, lung, brain, liver, kidney, colon, spleen, pancreas) were harvested and prepared for histological analysis.
Tissue samples harvested at the time of autopsy were fixed in 3% NBF (normal buffered formalin) and embedded in paraffin wax. Tissue blocs were cut, dewaxed and stained with hematoxilin and eosin (H&E). Tissue sections were analyzed on a light microscope by two independent investigators and histological findings were documented. Tumor sections with necrotic areas were scanned with a GS-700 imaging densitometer (Biorad, Hercules, Calif.) and areas of necrosis were calculated as % of total section area. Statistical Analysis was performed using SPSS software (SPSS Science Software, Erkrath, Germany) applying the Mann-Whitney-U-test for ungrouped data.

3LL mouse lung carcinoma = assay: In vivo tumor thrombosis, 3LL; design: species or system C57BL/6 mice; settings: large (>800 mm^3) 3LL tumors
Excerpt: Tumor test systems were of four types: i) 3LL mouse lung carcinoma growing subcutaneously in C57BL/6 mice; ii) C1300 mouse neuroblastoma growing subcutaneously in BALB/c nu/nu mice; iii) HT29 human colorectal carcinoma growing subcutaneously in BALB/c nu/nu mice; and iv) C1300 Muγ mouse neuroblastoma growing subcutaneously in BALB/c nu/nu mice. The C1300 Muγ tumor is an interferon-γ secreting transfectant derived from the C 1300 tumor (Watanabe et al., 1989).
To establish tumors, 10^6 to 1.5×10^7 tumor cells were injected subcutaneously into the right anterior flank of the mice. When tumors had grown to various sizes, mice were randomly assigned to different study groups. […] Fab′, or bispecific antibody. Other mice received equivalent quantities IgG, Fab′ or bispecific antibody alone. The injections were performed slowly into one of the tail veins over approximately 45 seconds, usually followed by 200 μl of saline.
Twenty-four hours after being injected with tTF or immunoglobulin-tTF conjugates, the mice were anesthetized with metophane and were exsanguinated by perfusion with heparinized saline. Tumors and normal tissues were excised and immediately fixed in 3% (v/v) formalin. Paraffin sections were cut and stained with hematoxylin and eosin. Blood vessels having open lumens containing erythrocytes and blood vessels containing thrombi were counted. […]

F9 sarcoma = assay: Sarcoma mouse model, tumor necrosis; format: in vivo, balb/c nude mice; settings: endotoxin-free tTF, 4 μg
Procedure: 1×10^7 F9 sarcoma cells were injected subcutaneously into the right flank of balb/c nude mice. Subcutanous tumors were measured with a caliper in three perpendicular directions a, b, and c, and volumes calculated according to the formula V=π/6×a×b×c. Treatment was initiated when subcutaneous tumors reached a size of 150 to 300 μl.
Reagents were administered into the lateral tail vein.
Mice were closely observed after treatment for clinical signs of toxicity and clinical status was documented at defined time points. Three days after treatment, mice were sacrificed and tumors were harvested. Paraffin embedded tissues were stained with hematoxilin and eosin (H&E). Tissue sections were analyzed on a light microscope by two independent investigators and histological findings were documented. Tumor sections with necrotic areas were scanned with a GS-700 imaging densitometer (Biorad, Hercules, Calif.) and areas of necrosis were calculated as % of total section area.

tTF: extracellular domain of the mature Tissue Factor protein (amino acid 1-219)
factor X-activating activity, times less than native transmembrane TF (factor X): approximately 10^5 times | thrombosis of tumor vessels ([1]; 24 hours after injection): practically all vessels in all regions of the tumor were thrombosed | effect on vessels in small tumors ([1]; small (<500 mm^3) C1300 and C1300 Muγ): largely unaffected | tumor growth ([1]; tTF alone or mixed with control bispecific antibodies vs antibodies or saline alone): grew significantly more slowly | binding to immobilized tTF (immobilized tTF): did not bind to or homodimerize with immobilized tTF | plasma coagulation time ([2]; 10^−10 M tTF219, absence of Factor VIIa): 60 s | plasma coagulation time ([2]; 10^−10 M tTF219, presence of 13.5 nM Factor VIIa): 20 s | coagulation time ([2]; 20,000 molecules per cell): 140 s | coagulation time ([2]; 300,000 molecules of tTF per cell): 40 s | concentration at which plasma coagulated in 50 seconds ([2]; localized on A20 cells via B21-2/10H10): 3 nM | increase in coagulation-inducing potency ([2]; presence of 0.1 nM Factor VIIa): 2-5 fold | time until fibrin strands visible after addition of plasma ([2]; tTF bound to A20 cells by B21-2/10H10, mouse plasma): 36 s | effect on growth rate ([3]; first treatment, small (250 mm^3) tumors): little effect on growth rate | tumor volume after regression ([3]; second treatment given at 900 mm^3): 550 mm^3 | growth discontinued after treatment ([4]; large (1200 mm^3) tumors, i.v.): about 7 days | necrosis in tumor sections ([4]; small HT29 tumors, single agents, 24 hours): some necrosis | binding to endothelial cells expressing tissue factor [5]: no binding of tTF to endothelial cells | histological findings in normal organs ([6]; light microscopy, three days after treatment): No histological abnormalities | Symptoms ([6]; listed as TTF): None | Symptoms ([6]; listed as endotoxin-free tTF): no clinical signs of toxicity | tumor vessels thrombosed, average (3LL mouse lung carcinoma): 62% | average tumor tissue necrosis (F9 sarcoma): 45%
